The values below come from ChEMBL document CHEMBL4765487, “From a Designer Drug to the Discovery of Selective Cannabinoid Type 2 Receptor Agonists with Favorable Pharmacokinetic Profiles for the Treatment of Systemic Sclerosis” (J Med Chem, 2021).

Calls of active or inactive are those of the source. The calls are words filed in the database; no cut-off is given here.

Series [1] is described as follows: in vitro. The note with it: human, liver microsomes. A general note: Liver microsomes are vesicles of endoplasmic reticulum, rich in cytochrome P450 enzymes.
Series [2] can be described thus: in vitro. The note with it: human, liver.
Series [3] concerns the target T1, Cannabinoid receptor 2 (Homo sapiens, UniProt P34972). Put plainly: Agonist activity at CB2 receptor (unknown origin) relative to control. The following applies: filed as agonist.
The target in series [4] is T2, Cannabinoid receptor 1 (Homo sapiens, UniProt P21554). Put plainly: Agonist activity at CB1 receptor (unknown origin).
The target of series [5] is T2, Cannabinoid receptor 1. The series is described as follows: Agonist activity at CB1 receptor (unknown origin) relative to control. The note with it: filed as agonist.
Series [6] has as its target T1, Cannabinoid receptor 2. The series is described as follows: Agonist activity at human CB2 receptor expressing CHO cells co-expressing Galpha16 by calcium mobilization assay. Format: functional, cell-based. Background: Calcium flux is commonly read through the fluorescence of an indicator in the cells.
Series [7] is described as follows: in vitro. The following applies: human, liver microsomes. The source holds these as a separate data set.
Description: Stability in human liver microsomes assessed as parent compound remaining at 1 uM incubated for 60 mins in presence of NADPH by LC-MS/MS analysis
Series [8] has as its target T1, Cannabinoid receptor 2. Put plainly: Antagonist activity at human CB2 receptor expressing CHO cells co-expressing Galpha16 assessed as inhibition of CP55940-induced calcium mobilization pre-incubated for 15 mins before CP55940 addition. Format: functional, cell-based.
The nature of series [9]: in vitro. The note with it: human, liver microsomes. The source holds these as a separate data set.
Description: Half life in human liver microsomes at 1 uM in presence of NADPH by LC-MS/MS analysis
In series [10] the target is T2, Cannabinoid receptor 1. The series is described as follows: Agonist activity at human CB1 receptor expressing CHO cells co-expressing Galpha16 by calcium mobilization assay. Format: functional, cell-based.
For series [11], the target named is T2, Cannabinoid receptor 1. Put plainly: Agonist activity at human CB1 receptor expressing CHO cells co-expressing Galpha16 by calcium mobilization assay relative to CP55940. Format: functional, cell-based. The following applies: filed as agonist.
For series [12], the target named is T1, Cannabinoid receptor 2. Put plainly: Agonist activity at human CB2 receptor expressing CHO cells co-expressing Galpha16 by calcium mobilization assay relative to CP55940. The following applies: filed as agonist. Format: functional, cell-based.
Series [13] addresses T2, Cannabinoid receptor 1. Put plainly: Induction of receptor desensitization at human CB1 receptor expressing CHO cells co-expressing Galpha16 at 10 uM followed by washing with HBSS buffer upon incubation for 10 mins and restimulated with CP55940 by calcium mobilization assay. Format: functional, cell-based. The note with it: filed as agonist.
For series [14], the target named is T2, Cannabinoid receptor 1. Put plainly: Agonist activity at human CB1 receptor expressing CHO cells co-expressing Galpha16 at 10 uM by calcium mobilization assay. Format: functional, cell-based. The note with it: filed as agonist.

T2 sequence (P21554 whole entry): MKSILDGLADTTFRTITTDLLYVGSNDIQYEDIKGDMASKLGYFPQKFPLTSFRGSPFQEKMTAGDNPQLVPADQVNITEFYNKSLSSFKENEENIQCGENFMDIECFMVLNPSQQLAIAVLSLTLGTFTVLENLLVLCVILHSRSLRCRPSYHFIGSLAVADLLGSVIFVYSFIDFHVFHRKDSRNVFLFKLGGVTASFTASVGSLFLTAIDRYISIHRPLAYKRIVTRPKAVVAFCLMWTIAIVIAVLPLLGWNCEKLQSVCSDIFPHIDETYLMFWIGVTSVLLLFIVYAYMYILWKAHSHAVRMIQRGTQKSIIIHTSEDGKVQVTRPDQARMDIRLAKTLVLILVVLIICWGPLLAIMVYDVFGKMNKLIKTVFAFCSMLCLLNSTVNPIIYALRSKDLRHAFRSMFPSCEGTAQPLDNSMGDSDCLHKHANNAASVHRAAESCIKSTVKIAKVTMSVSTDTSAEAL
T1 sequence (P34972 whole entry): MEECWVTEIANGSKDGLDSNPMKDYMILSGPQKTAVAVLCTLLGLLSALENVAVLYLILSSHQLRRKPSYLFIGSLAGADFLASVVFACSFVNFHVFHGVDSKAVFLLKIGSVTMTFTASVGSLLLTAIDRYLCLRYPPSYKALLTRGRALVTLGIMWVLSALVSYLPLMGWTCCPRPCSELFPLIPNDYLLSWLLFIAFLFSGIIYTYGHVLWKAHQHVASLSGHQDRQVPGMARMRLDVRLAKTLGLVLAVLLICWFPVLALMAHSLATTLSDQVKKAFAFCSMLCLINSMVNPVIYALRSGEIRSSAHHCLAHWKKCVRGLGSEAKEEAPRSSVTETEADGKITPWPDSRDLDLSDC

The term microsomal CLint denotes the rate of metabolic loss divided by the concentration. Low readings indicate slow turnover, high ones rapid turnover. The term CLint scaled denotes the rate of metabolic loss divided by the concentration. A lower CLint scaled goes with slow turnover. Turning to `O=C(O)Cc1ccccc1Nc1c(Cl)cccc1Cl` [DICLOFENAC], in “in vitro [1]”, the microsomal CLint at 1 µM came to 129 µL/min/mg. This molecule yielded a CLint scaled at 1 µM in the series “in vitro [2]” of 116 mL/min/kg.

A word on the Emax: it is the maximal effect, on the per cent scale that the assay sets. Usually EC50 stands for the midpoint of the concentration-response curve. With `CCCCCn1cc(C(=O)NC23CC4CC(CC(C4)C2)C3)c2ccccc21`, the Emax on Cannabinoid receptor 2 [3] came out at 91%; at Cannabinoid receptor 1 [5], 98%. Moreover, the midpoint of the response at Cannabinoid receptor 1 [4], the EC50, lay at 34 nM.

In general, fraction remaining refers to the share of the starting amount still present when the sample was taken. A high value points to greater stability. Broadly, the IC50 is the midpoint of a concentration-inhibition curve. As usually defined, the half-life is how long it takes for the measured level to halve. A high value points to slow decline. Regarding `CCCCCn1nc(C(=O)NC(C)(C)CO)cc1-c1ccc(F)cc1F`, the EC50 on Cannabinoid receptor 2 [6] and on Cannabinoid receptor 1 [10] was 100000 nM throughout. Moreover, the share remaining at 1 h, 1 µM in “in vitro [7]” was found to be 14.1%. Besides, in the series “in vitro [1]”, the microsomal CLint at 1 µM is 64.6 µL/min/mg. Also, the IC50 at Cannabinoid receptor 2 [8] (read-out: IC50) was determined as 87.1 nM. This molecule also yielded a half-life at 1 µM in the series “in vitro [9]” of 21.4 min. This molecule also showed a CLint scaled at 1 µM in the series “in vitro [2]” of 58.2 mL/min/kg.

As for `CCCCCn1nc(C(=O)NC(C)(C)CO)c(N)c1C(C)(C)C`, the concentration giving a half-maximal response (EC50) came to 5.5 nM at Cannabinoid receptor 2 [6] and 195 nM at Cannabinoid receptor 1 [10]. Moreover, the share remaining at 1 h, 1 µM in the series “in vitro [7]” stood at 4.6%. Also, the Emax on Cannabinoid receptor 1 [11] was 80%; on Cannabinoid receptor 2 [12], 100%. The microsomal CLint at 1 µM in the series “in vitro [1]” turned out to be 104 µL/min/mg. Further, the IC50 result on Cannabinoid receptor 2 [8] (cho) is on record as “Not Active”. Moreover, the half-life at 1 µM in “in vitro [9]” is 13.3 min. This molecule registered a CLint scaled at 1 µM in the series “in vitro [2]” of 94 mL/min/kg.

In the case of `C[C@]12CC[C@H]3[C@@H](CCC4=CC(=O)CC[C@@]43C)[C@@H]1CC[C@@H]2O` [TESTOSTERONE], the share remaining at 1 h, 1 µM in the series “in vitro [7]” turned out to be 10.7%. This molecule registered a microsomal CLint at 1 µM in the series “in vitro [1]” of 73.6 µL/min/mg. For the same molecule, in “in vitro [9]”, the half-life at 1 µM came out at 18.8 min. The intrinsic metabolic clearance (CLint scaled) at 1 µM in the series “in vitro [2]” is 66.3 mL/min/kg.

For `CCCCCCC(C)(C)c1ccc([C@@H]2C[C@H](O)CC[C@H]2CCCO)c(O)c1` [CP-55940], the result on Cannabinoid receptor 1 [13] and at Cannabinoid receptor 1 [14] was Active. Moreover, the IC50 result on Cannabinoid receptor 2 [8] (cho) is “Not Active”.

Regarding `CCCCCn1nc(C(=O)NC(C)(C)CO)cc1C(C)(C)C`, the EC50 on Cannabinoid receptor 2 [6] amounted to 2.9 nM; at Cannabinoid receptor 1 [10], 17.4 nM. The molecule further yielded an amount remaining at 1 h, 1 µM in “in vitro [7]” of 14.9%. Moreover, the Emax on Cannabinoid receptor 1 [11] and at Cannabinoid receptor 2 [12] was 100% each time. This molecule also had a microsomal CLint at 1 µM in the series “in vitro [1]” of 62.4 µL/min/mg. Besides, the half-life at 1 µM in the series “in vitro [9]” worked out at 22.2 min. In the series “in vitro [2]”, this molecule had a CLint scaled at 1 µM of 56.1 mL/min/kg.

Consider `CCCCCn1nc(C(=O)N[C@@H](C(=O)OC)C(C)C)cc1C(C)(C)C`, for which the figures for the EC50 at Cannabinoid receptor 2 [6] and on Cannabinoid receptor 1 [10] were 7.4 nM and 1.6 nM, respectively. The amount remaining at 1 h, 1 µM in the series “in vitro [7]” came out at 2.9%. Moreover, the maximal effect (Emax) on Cannabinoid receptor 1 [11] and on Cannabinoid receptor 2 [12] was 90% each time. The microsomal CLint at 1 µM in the series “in vitro [1]” came out at 117 µL/min/mg. This molecule displayed a half-life at 1 µM in “in vitro [9]” of 11.8 min. Moreover, the CLint scaled at 1 µM in “in vitro [2]” amounted to 105 mL/min/kg.

With `CCCCCn1nc(C(=O)NC(C)(C)CO)c(Br)c1C(C)(C)C`, the figures for the EC50 on Cannabinoid receptor 2 [6] and at Cannabinoid receptor 1 [10] were 2 nM and 27 nM, respectively. Further, the Emax was 50% on Cannabinoid receptor 1 [11] and 100% on Cannabinoid receptor 2 [12]. At Cannabinoid receptor 2 [8] (cho), the IC50 entry is on record as “Not Active”.

With `CCCCCn1nc(C(=O)NC(C)(C)CO)c([N+](=O)[O-])c1C(C)(C)C`, the EC50 was 13.3 nM on Cannabinoid receptor 2 [6] and 129 nM on Cannabinoid receptor 1 [10]. Further, the Emax was determined as 100% on Cannabinoid receptor 1 [11] and 70% at Cannabinoid receptor 2 [12]. The IC50 entry on Cannabinoid receptor 2 [8] (cho) is listed as “Not Active”.

As to `CCCCCn1nc(C(=O)NC(C)(C)CO)cc1CC(C)(C)C`, the EC50 was 12 nM on Cannabinoid receptor 2 [6] and 27 nM at Cannabinoid receptor 1 [10]. Moreover, the maximum response (Emax) on Cannabinoid receptor 1 [11] was determined as 90%; on Cannabinoid receptor 2 [12] it was 50%. On Cannabinoid receptor 2 [8] (cho), the IC50 entry is reported as “Not Active”.

Take `CCCCCn1nc(C(=O)NC(C)(C)CO)cc1C(C)C`: the values for the EC50 at Cannabinoid receptor 2 [6] and on Cannabinoid receptor 1 [10] were 38.5 nM and 171 nM, respectively. Further, the Emax at Cannabinoid receptor 1 [11] amounted to 90%; on Cannabinoid receptor 2 [12] it was 70%. Also, the IC50 entry at Cannabinoid receptor 2 [8] (cho) is given as “Not Active”.
